Earlier results in US10441593B2, “Treatment of pain associated with dislocation of endometrium” (PREGLEM S.A., priority 2010, dated 2019).

Tests used:
liver enzyme = conditions: clinical development program; 12.5 mg, 25 mg and 50 mg; cited from earlier work
endometriosis = conditions: cited from earlier work

For `COCC(=O)[C@@]1(OC(C)=O)CC[C@H]2[C@@H]3CCC4=CC(=O)CCC4=C3[C@@H](c3ccc(N(C)C)cc3)C[C@@]21C` [Proellex], the “liver enzyme (sign of liver toxicity, DILI)” value (liver enzyme) is given as “dose related increase in liver enzyme”, the “days of pain compared with baseline” value (endometriosis; 50 mg group, end of the first months of therapy) is given as “statistically significant reduction in days of pain” and the “dose response in treatment of endometriosis” value (endometriosis; 6 month study) is given as “clearly support a dose response”.
